Source: ChEMBL document CHEMBL1201862, “PubChem BioAssay data set” (2004)
Active and inactive are the calls of the source.

What was measured:
Mu-type opioid receptor = Mu-type opioid receptor (Homo sapiens, UniProt P35372); assay type: functional, cell-based;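 note: U2OS cells with beta-arrestin recruitment to OPRM1 by beta-gal complementation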
[1] = molecular target: 5-hydroxytryptamine receptor 2A (Mus musculus, UniProt P35363); assay type: functional, cell-based;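 note: CHO-K1 cells with tagged receptor and beta-arrestin; agonist potency measured as compound-induced activation of the receptor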
5-hydroxytryptamine receptor 2A, sequence (P35363 whole entry): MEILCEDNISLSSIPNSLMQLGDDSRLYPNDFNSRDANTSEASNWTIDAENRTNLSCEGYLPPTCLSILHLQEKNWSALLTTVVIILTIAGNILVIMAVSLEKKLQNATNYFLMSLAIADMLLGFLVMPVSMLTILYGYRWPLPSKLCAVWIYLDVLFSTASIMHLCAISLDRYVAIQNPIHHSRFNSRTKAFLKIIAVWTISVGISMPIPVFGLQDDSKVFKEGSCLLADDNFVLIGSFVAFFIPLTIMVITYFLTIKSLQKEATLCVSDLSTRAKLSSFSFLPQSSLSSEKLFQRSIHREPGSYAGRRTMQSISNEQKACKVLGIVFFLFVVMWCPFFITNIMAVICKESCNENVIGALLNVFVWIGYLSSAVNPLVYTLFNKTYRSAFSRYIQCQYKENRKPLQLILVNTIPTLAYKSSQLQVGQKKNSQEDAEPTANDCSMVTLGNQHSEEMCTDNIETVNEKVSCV

[2] = molecular target: Voltage-gated inwardly rectifying potassium channel KCNH2 (Homo sapiens, UniProt Q12809); conditions: Potency;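 note: confirmatory quantitative high-throughput screen measuring inhibition of hERG channel activity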
Voltage-gated inwardly rectifying potassium channel KCNH2, sequence (Q12809 whole entry): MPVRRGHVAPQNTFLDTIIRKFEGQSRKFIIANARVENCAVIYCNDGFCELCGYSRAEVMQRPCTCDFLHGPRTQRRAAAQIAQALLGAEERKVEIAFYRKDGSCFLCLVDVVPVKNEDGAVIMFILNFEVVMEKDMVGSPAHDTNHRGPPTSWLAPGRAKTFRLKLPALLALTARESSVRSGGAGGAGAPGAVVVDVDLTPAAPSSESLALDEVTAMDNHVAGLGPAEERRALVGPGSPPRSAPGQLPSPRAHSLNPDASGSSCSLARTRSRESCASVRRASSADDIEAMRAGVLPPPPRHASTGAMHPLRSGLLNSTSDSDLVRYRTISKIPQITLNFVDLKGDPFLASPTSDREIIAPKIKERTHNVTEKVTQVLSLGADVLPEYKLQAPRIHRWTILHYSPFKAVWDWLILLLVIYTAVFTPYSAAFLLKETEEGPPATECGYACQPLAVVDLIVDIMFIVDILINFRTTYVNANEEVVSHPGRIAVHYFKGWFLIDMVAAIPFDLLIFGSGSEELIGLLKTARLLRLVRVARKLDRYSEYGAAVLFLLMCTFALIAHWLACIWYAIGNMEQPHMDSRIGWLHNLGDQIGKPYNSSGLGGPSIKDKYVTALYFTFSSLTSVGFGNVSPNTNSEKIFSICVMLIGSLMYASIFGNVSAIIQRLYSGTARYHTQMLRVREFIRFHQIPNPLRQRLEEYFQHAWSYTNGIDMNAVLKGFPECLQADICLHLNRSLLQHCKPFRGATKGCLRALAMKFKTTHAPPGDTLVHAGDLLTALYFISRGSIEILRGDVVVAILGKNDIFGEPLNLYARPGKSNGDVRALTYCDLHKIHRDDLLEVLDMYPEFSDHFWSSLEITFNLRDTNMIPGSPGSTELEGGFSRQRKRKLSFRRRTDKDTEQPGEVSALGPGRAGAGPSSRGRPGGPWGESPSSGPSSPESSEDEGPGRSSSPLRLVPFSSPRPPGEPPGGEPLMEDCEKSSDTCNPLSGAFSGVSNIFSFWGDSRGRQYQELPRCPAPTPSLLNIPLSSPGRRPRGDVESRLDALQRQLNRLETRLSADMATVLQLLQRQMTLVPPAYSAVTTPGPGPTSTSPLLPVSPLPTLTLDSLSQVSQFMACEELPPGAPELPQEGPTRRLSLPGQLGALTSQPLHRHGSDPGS

Hexokinase-1 [3] = molecular target: T1, Hexokinase-1 (Homo sapiens, UniProt P19367); assay: hexokinase 1 activity inhibitors, potency – biochemical, set 2, resazurin fluorescence coupled readout, selectivity assay for HKDC1 inhibitor project, SAR follow-up (AID 588356); assay type: functional
T1 sequence (P19367 whole entry): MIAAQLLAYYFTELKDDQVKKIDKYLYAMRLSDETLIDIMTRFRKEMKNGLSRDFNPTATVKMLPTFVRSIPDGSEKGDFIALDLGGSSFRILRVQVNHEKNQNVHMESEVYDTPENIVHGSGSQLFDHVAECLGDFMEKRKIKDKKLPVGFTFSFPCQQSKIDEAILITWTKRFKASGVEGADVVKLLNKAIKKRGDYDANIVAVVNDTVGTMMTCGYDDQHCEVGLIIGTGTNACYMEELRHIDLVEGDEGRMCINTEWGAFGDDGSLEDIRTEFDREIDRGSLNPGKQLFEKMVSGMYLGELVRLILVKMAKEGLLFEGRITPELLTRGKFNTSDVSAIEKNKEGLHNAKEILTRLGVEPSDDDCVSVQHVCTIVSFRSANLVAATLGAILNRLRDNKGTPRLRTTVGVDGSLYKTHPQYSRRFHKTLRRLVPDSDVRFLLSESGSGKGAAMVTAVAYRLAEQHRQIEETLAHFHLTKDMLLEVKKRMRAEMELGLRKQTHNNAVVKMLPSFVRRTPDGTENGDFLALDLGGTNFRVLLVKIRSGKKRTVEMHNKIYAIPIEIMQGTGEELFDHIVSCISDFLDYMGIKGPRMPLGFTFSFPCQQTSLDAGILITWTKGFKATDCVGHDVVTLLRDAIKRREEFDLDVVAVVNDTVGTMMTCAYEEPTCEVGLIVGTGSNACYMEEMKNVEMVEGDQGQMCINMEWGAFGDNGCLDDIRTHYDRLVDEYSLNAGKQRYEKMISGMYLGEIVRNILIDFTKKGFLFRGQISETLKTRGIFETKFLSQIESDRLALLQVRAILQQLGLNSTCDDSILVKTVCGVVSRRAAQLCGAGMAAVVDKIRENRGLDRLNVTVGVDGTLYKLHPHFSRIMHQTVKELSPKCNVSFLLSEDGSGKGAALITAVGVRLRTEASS

Hexokinase HKDC1 [4] = molecular target: T2, Hexokinase HKDC1 (Homo sapiens, UniProt Q2TB90); assay: analog inhibition of human HKDC1 activity – biochemical, set 2, SAR follow-up (AID 588355); assay type: functional
T2 sequence (Q2TB90 whole entry): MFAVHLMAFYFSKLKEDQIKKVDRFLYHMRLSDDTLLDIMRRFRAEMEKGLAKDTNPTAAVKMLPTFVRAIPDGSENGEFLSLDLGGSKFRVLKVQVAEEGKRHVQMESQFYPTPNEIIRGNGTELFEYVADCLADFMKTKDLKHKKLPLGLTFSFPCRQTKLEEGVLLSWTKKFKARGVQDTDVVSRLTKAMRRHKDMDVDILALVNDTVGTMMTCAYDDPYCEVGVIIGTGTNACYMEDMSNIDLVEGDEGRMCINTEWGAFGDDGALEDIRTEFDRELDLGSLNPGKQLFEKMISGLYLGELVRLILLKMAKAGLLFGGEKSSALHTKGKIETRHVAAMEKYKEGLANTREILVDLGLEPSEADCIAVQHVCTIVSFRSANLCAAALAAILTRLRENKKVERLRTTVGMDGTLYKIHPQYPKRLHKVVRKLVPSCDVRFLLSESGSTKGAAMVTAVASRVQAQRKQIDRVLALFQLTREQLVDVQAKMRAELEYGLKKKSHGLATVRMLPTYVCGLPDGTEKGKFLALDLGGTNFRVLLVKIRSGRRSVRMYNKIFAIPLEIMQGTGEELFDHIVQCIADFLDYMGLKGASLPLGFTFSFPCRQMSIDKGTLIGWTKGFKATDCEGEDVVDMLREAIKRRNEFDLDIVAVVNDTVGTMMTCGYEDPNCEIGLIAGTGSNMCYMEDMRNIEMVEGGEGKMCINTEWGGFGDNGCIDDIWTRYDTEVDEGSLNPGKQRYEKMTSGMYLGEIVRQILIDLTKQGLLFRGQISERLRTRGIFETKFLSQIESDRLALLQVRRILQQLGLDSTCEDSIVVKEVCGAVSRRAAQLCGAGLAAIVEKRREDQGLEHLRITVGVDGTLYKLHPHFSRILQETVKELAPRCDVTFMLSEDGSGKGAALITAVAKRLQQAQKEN

Hexokinase-1 [5] = molecular target: T1, Hexokinase-1; assay: SAR analysis of small molecule inhibitors of hexokinase domain containing I (HKDC1) in the hexokinase 1 selectivity assay. [Related pubchem assays (depositor defined):AID493160, AID493190]; assay type: functional
Hexokinase HKDC1 [6] = molecular target: T2, Hexokinase HKDC1; assay: SAR analysis of small molecule inhibitors of hexokinase domain containing I (HKDC1). [Related pubchem assays (depositor defined):AID493160, AID493190]; assay type: functional
Phospholipase D1 [7] = molecular target: T3, Phospholipase D1 (Homo sapiens, UniProt Q13393); assay: cellular phospholipase D1 inhibition IC50 – cell-based, dose response (AID 602151); assay type: functional;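 note: cellular PLD1 assay in Calu-1 cells stimulated with PMA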
T3 sequence (Q13393 whole entry): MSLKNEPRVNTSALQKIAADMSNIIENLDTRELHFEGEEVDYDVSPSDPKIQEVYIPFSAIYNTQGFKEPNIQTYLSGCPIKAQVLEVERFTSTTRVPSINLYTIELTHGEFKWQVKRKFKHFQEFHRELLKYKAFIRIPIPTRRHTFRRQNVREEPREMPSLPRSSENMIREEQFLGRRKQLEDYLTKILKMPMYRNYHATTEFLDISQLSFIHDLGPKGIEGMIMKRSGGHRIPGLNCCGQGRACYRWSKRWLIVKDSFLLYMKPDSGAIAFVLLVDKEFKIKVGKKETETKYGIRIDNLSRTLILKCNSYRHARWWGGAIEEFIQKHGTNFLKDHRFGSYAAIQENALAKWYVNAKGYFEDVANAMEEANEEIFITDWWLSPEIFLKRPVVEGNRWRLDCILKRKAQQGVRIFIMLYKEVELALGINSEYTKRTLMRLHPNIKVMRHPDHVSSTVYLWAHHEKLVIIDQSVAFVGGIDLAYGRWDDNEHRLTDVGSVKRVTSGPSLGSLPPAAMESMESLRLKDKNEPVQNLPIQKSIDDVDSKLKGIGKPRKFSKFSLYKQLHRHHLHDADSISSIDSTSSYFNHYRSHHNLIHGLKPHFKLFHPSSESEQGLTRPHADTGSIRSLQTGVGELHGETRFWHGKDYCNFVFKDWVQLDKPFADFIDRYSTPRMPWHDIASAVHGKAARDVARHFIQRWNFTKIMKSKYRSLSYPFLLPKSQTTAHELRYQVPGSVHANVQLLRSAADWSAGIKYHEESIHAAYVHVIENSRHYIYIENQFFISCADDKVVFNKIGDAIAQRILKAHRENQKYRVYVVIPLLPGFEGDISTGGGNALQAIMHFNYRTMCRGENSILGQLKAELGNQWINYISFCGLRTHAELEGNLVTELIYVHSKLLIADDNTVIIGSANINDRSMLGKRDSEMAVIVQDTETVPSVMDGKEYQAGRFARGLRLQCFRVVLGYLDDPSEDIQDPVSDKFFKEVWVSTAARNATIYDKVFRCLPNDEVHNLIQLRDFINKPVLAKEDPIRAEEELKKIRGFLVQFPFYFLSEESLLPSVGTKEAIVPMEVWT

Phospholipase D2 [8] = molecular target: T4, Phospholipase D2 (Homo sapiens, UniProt O14939); assay: cellular phospholipase D2 inhibition IC50 – cell-based, dose response (AID 602147); assay type: functional;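 note: cellular assay in HEK293 cells overexpressing GFP-tagged PLD2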
T4 sequence (O14939 whole entry): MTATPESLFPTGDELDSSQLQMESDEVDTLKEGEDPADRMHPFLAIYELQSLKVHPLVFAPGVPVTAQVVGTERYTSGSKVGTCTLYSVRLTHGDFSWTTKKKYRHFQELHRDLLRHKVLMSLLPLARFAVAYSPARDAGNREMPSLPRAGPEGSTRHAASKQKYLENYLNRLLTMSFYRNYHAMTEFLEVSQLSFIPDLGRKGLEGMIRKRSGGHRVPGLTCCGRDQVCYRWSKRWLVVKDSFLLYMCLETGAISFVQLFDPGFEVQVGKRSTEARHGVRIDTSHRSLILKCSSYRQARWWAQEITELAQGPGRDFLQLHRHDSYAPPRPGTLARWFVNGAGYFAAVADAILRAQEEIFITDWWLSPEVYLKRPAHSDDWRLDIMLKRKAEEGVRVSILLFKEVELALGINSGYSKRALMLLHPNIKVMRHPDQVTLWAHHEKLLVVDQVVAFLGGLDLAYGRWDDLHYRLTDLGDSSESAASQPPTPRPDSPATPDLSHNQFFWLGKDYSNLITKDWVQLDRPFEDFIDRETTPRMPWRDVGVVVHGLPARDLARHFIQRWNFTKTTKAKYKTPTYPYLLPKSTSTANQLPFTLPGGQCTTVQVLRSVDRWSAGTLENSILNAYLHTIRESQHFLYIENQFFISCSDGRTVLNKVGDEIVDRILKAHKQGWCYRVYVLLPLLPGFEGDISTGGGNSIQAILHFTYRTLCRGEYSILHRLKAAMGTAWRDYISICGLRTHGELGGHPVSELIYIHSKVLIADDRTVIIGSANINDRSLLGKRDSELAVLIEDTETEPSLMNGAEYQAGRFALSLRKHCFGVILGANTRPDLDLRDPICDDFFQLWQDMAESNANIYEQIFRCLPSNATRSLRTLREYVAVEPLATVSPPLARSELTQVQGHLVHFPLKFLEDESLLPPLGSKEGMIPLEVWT

Phospholipase D1 [9] = molecular target: T3, Phospholipase D1; assay: PLD1 purified enzyme concentration response. [Related pubchem assays (depositor defined):AID588854]; assay type: functional
Phospholipase D2 [10] = molecular target: T4, Phospholipase D2; assay: PLD2 purified enzyme concentration response. [Related pubchem assays (depositor defined):AID588854]; assay type: functional

Mu-type opioid receptor, sequence (P35372 whole entry): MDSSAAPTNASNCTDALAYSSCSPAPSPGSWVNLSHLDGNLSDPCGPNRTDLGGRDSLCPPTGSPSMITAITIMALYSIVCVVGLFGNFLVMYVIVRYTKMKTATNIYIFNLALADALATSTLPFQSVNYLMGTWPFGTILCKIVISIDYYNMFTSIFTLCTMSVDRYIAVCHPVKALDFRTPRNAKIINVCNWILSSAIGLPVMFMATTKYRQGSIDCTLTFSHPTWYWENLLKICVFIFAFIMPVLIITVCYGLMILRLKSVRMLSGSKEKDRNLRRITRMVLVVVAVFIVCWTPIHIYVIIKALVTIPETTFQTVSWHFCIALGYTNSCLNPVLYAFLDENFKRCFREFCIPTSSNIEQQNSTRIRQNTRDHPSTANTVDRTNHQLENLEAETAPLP

C=CCN1CCc2cc(O)c(O)cc2C(c2ccccc2)C1 (stereo unspecified)
EC50 (Mu-type opioid receptor): 92.5 µM (inactive) | EC50 [1]: 2.32 µM (active) | AC50 [2]: 15.8 µM (inconclusive)

CC(=O)NC1C(=O)N(Cc2ccccc2)c2ccc(Cl)cc21 (stereo unspecified)
IC50 (Hexokinase-1 [3]): > 80 µM (inactive) | IC50 (Hexokinase HKDC1 [4]): > 80 µM (inactive)

O=C(Nc1cccc(C(F)(F)F)c1)c1cccc(NC(=O)c2cnccn2)c1
IC50 (Hexokinase-1 [5]): > 80 µM (inactive) | IC50 (Hexokinase HKDC1 [6]): > 80 µM (inactive)

C[C@H](CN1CCC(n2c(=O)[nH]c3cc(Cl)ccc32)CC1)NC(=O)c1cc2ccccc2[nH]1
IC50 (Phospholipase D1 [7]): 0.002 µM (active) | IC50 (Phospholipase D2 [8]): 0.26 µM (active) | IC50 (Phospholipase D1 [9]): 0.009 µM (active) | IC50 (Phospholipase D2 [10]): 0.12 µM (active)
